Data reported in paper PMC3586229 (Bioorganic & medicinal chemistry letters, 2012).

Assay type: physicochemical
Details: for Stability in aqueous solution (MS, time course): DMSO solution diluted 1 to 1000 in water, followed over 24 h

Structure (SMILES) | Stability in aqueous solution (MS, time course) | Stability in buffer solution (buffer solution, pH 7.4)
CC(C)C[C@H](NC(=O)OCc1ccccc1)C(=O)N[C@H](C=O)CC1CCNC1=O (stereo partly drawn) [Compound 6a] | the hydrated form was the dominant species after only five minutes exposure to water | 
CC(C)C[C@H](NC(=O)OCc1ccccc1)C(=O)N[C@@H](CC1CCNC1=O)C(O)S(=O)(=O)[O-].[Na+] (stereo partly drawn) [Compound 7a] | remains unchanged as the bisulfite form after 24 h | gradually dissociates into the corresponding aldehyde 6a within an hour
